Columns and labels:
CCRF-CEM = details: Leukemia, besylate salt
K-562 = details: K-562, Leukemia; besylate salt
SR = details: Leukemia, besylate salt
HOP-62 [1] = details: HOP-62, Non-Small Cell Lung Cancer; besylate salt
NCI-H322M [2] = details: Non-Small Cell Lung Cancer, besylate salt
HCT-116 = details: HCT-116, Colon Cancer; besylate salt
HCT-15 [3] = details: HCT-15, Colon Cancer; besylate salt
HT29 [4] = details: HT29, Colon Cancer; besylate salt
SW-620 = details: SW-620, Colon Cancer; besylate salt
U251 = details: U251, CNS Cancer; besylate salt
HL-60(TB) = assay: cells; details: Homo sapiens
MALME-3M = details: Melanoma, besylate salt
M14 = details: M14, Melanoma; besylate salt
IGROV1 = details: IGROV1, Ovarian Cancer; besylate salt
OVCAR-3 = details: OVCAR-3, Ovarian Cancer; besylate salt
OVCAR-5 = details: OVCAR-5, Ovarian Cancer; besylate salt
CAKI-1 = details: CAKI-1, Renal Cancer; besylate salt
RXF 393 [5] = details: RXF 393, Renal Cancer; besylate salt
UO-31 = details: UO-31, Renal Cancer; besylate salt
DU-145 [6] = details: DU-145, Prostate Cancer; besylate salt
MCF7 = details: MCF7, Breast Cancer; besylate salt
NCI/ADR-RES = details: Breast Cancer, besylate salt
MDA-MB-231/ATCC = details: Breast Cancer, besylate salt
HS 578T [7] = details: Breast Cancer, besylate salt
BT-549 = details: BT-549, Breast Cancer; besylate salt
EKVX = assay: cells; details: Homo sapiens
HOP-62 [8] = assay: cells; details: Homo sapiens
HOP-92 = assay: cells; details: Homo sapiens
NCI-H322M [9] = assay: cells; details: Homo sapiens
NCI-H522 = assay: cells; details: Homo sapiens, NCI-H522, read-out: LC50
HCT-15 [10] = assay: cells; details: Homo sapiens, HCT-15, read-out: LC50
HT29 [11] = assay: cells; details: Homo sapiens
SF-268 = assay: cells; details: Homo sapiens
SF-295 = assay: cells; details: Homo sapiens, SF-295, read-out: LC50
SF-539 = assay: cells; details: Homo sapiens
SK-MEL-5 = assay: cells; details: Homo sapiens
RXF 393 [12] = assay: cells; details: Homo sapiens
DU-145 [13] = assay: cells; details: Homo sapiens, DU-145, read-out: LC50
HS 578T [14] = assay: cells; details: Homo sapiens
T-47D = assay: cells; details: Homo sapiens, T47D, read-out: LC50

Structure (SMILES): COc1cc(Nc2ncc(F)c(Nc3ccc4c(n3)NC(=O)C(C)(C)O4)n2)cc(OC)c1OC [Compound 1]
- TGI (CCRF-CEM): >1.00E−4
- TGI (K-562): >1.00E−4
- TGI (SR): >1.00E−4
- TGI (HOP-62 [1]): >1.00E−4
- TGI (NCI-H322M [2]): >1.00E−4
- TGI (HCT-116): >1.00E−4
- TGI (HCT-15 [3]): >1.00E−4
- TGI (HT29 [4]): >1.00E−4
- TGI (SW-620): >1.00E−4
- TGI (U251): >1.00E−4
- IC50 (HL-60(TB); HL-60, read-out: G150): > 100 µM
- CC50 (HL-60(TB); HL-60, read-out: LC50): > 100 µM
- TGI (MALME-3M): >1.00E−4
- TGI (M14): >1.00E−4
- TGI (IGROV1): >1.00E−4
- TGI (OVCAR-3): >1.00E−4
- TGI (OVCAR-5): >1.00E−4
- TGI (CAKI-1): 2.44E−6
- TGI (RXF 393 [5]): 7.74E−7
- TGI (UO-31): >1.00E−4
- TGI (DU-145 [6]): >1.00E−4
- TGI (MCF7): >1.00E−4
- TGI (NCI/ADR-RES): >1.00E−4
- TGI (MDA-MB-231/ATCC): >1.00E−4
- TGI (HS 578T [7]): >1.00E−4
- TGI (BT-549): >1.00E−4
- IC50 (EKVX; read-out: G150): 1.66 µM
- CC50 (EKVX; read-out: LC50): > 100 µM
- IC50 (HOP-62 [8]; HOP-62, read-out: G150): 0.537 µM
- CC50 (HOP-62 [8]; HOP-62, read-out: LC50): > 100 µM
- IC50 (HOP-92; HOP-92, read-out: G150): 0.41 µM
- CC50 (HOP-92; HOP-92, read-out: LC50): > 100 µM
- IC50 (NCI-H322M [9]; read-out: G150): > 100 µM
- CC50 (NCI-H322M [9]; read-out: LC50): > 100 µM
- CC50 (NCI-H522): > 100 µM
- CC50 (HCT-15 [10]): > 100 µM
- IC50 (HT29 [11]; HT-29, read-out: G150): 2.19 µM
- CC50 (HT29 [11]; HT-29, read-out: LC50): > 100 µM
- IC50 (SF-268; SF-268, read-out: G150): 1.7 µM
- CC50 (SF-268; SF-268, read-out: LC50): > 100 µM
- CC50 (SF-295): > 100 µM
- IC50 (SF-539; SF-539, read-out: G150): 0.605 µM
- CC50 (SF-539; SF-539, read-out: LC50): > 100 µM
- IC50 (SK-MEL-5; SK-MEL-5, read-out: G150): > 100 µM
- CC50 (SK-MEL-5; SK-MEL-5, read-out: LC50): > 100 µM
- IC50 (RXF 393 [12]; RXF 393, read-out: G150): 0.196 µM
- CC50 (RXF 393 [12]; RXF 393, read-out: LC50): > 100 µM
- CC50 (DU-145 [13]): > 100 µM
- IC50 (HS 578T [14]; read-out: G150): 1.19 µM
- CC50 (HS 578T [14]; read-out: LC50): > 100 µM
- CC50 (T-47D): > 100 µM

Reference: US20090048214A1, “Methods for Treating Renal Tumors Using 2, 4-Pyrimidinediamine Drug and Prodrug Compounds” (RIGEL PHARMACEUTICALS, INC, priority 2006, published 2009)
